Tests used:
[1] = Percentage bioactive sulfur contained in hydrogen sulfide prodrugs; assay type: physicochemical; conditions: sulfur capable of being converted into hydrogen sulfide in vivo
[2] = tested on: cavernosal smooth muscle; conditions: Shukla et al., BJU Int. 2009; cited from earlier work
[3] = tested on: superoxide formation; conditions: Shukla et al., BJU Int. 2009; cited from earlier work
[4] = tested on: p47^phox (a subunit of NOX); conditions: Shukla et al., BJU Int. 2009; cited from earlier work
[5] = target: phosphodiesterase type 5 (PDE5) (Homo sapiens, UniProt O76074); conditions: Sparatore et al. 2011; cited from earlier work
[6] = tested on: NADPH oxidase (NOX); conditions: Sparatore et al. 2011; cited from earlier work
[7] = tested on: pregnant rat uterus; conditions: pregnant rat uterus in vitro, Sidhu et al. 2001; cited from earlier work
[8] = tested on: angiogenesis; conditions: NaHS in the drinking water, via increasing VEGF expression, Givvimani et al. 2011; cited from earlier work
[9] = Solubility in carbon disulfide; assay type: physicochemical
Experimental: The solubility of the composition in carbon disulfide was obtained by adding 6 mL of carbon disulfide to 0.500 g of the final product and determining the weight of the residue.

Row | SMILES | % Bioactive sulfur (w/w) [1] | other results
1 | NC(=S)c1ccc(O)cc1 [4-hydroxythiobenzamide] | 20.9 % (w/w) | –
2 | CCCc1nn(C)c2c(=O)[nH]c(-c3cc(S(=O)(=O)N4CCN(CC(=O)Oc5ccc(-c6cc(=S)ss6)cc5)CC4)ccc3OCC)nc12 [ACS 6] | 3.5 % (w/w) | relaxation of cavernosal smooth muscle [2]: equipotently; inhibition of superoxide formation [3]: more than sildenafil citrate; inhibition of expression of p47phox [4]: more than sildenafil citrate; effect of H2S released by ACS6 on PDE5 [5]: inhibits; effect of H2S released by ACS6 on NOX expression activity [6]: inhibits
3 | O=C(Cc1ccccc1Nc1c(Cl)cccc1Cl)Oc1ccc(-c2cc(=S)ss2)cc1 [ACS 15] | 6.3 % (w/w) | –
4 | O=C(CCC/C=C\C[C@@H]1[C@@H](CC[C@@H](O)CCc2ccccc2)[C@H](O)C[C@@H]1O)Oc1ccc(-c2cc(=S)ss2)cc1 [ACS 67] | 5.3 % (w/w) | –
5 | COc1ccc2c(c1)c(CC(=O)Oc1ccc(-c3cc(=S)ss3)cc1)c(C)n2C(=O)c1ccc(Cl)cc1 [ATB 343] | 5.6 % (w/w) | –
6 | COc1ccc2cc(C(C)C(=O)Oc3ccc(C(N)=S)cc3)ccc2c1 (stereo not drawn) [ATB 346] | 8.8 % (w/w) | –
7 | C=CCSSCC=C [Diallyl disulfide] | 45.1 % (w/w) | –
8 | C=CCSSSCC=C [Diallyl trisulfide] | 53.9 % (w/w) | –
9 | c1ccc(CSSSCc2ccccc2)cc1 [Dibenzyl trisulfide] | 11.5 % (w/w) | –
10 | C1COCCN1.COc1ccc(P(=S)(S)N2CCOCC2)cc1 (stereo not drawn) [GYY 4137] | 8.5 % (w/w) | –
11 | [Na+].[Na+].[S-2] [Na2S] | 41 % (w/w) | –
12 | S [NaHS, sodium hydrogen sulfide] | 57 % (w/w) | uterine spontaneous contractility [7]: significant dose-dependent decreases; angiogenesis [8]: augmented angiogenesis
13 | [S] [Pure alpha- or beta-elemental sulfur, elemental sulfur] | – | Solubility in carbon disulfide [9]: completely soluble
14 | C[S+]([O-])CCCCN=C=S (stereo not drawn) [Sulforaphane] | 18 % (w/w) | –

From US20150064286A1, “PREPARATION AND COMPOSITIONS OF HIGHLY BIOAVAILABLE ZEROVALENT SULFUR AND USES THEREOF” (EMORY UNIVERSITY, priority 2011, published 2015)
